# According to patent publication US12084441B2, “Salts of a compound and the crystalline forms thereof” (priority 2017, dated 2024):
# What was measured:
# [1] = physchem; conditions: water, thermodynamic from solid, Solubility (mg/mL)
# Text: (§1) Then the excess solids were filtered out, and the clear filtrates were used to determine solubility.
# [2] = Rough solubility test of salt of Formula A in water; format: physicochemical; conditions: Purified Water, 19° C.; for solubility at 5 min: thermodynamic from solid
# Experimental: After each addition of water, the test tube was shaken for 5 minutes until the solid was dissolved completely. Then the rough solubility of the compound was calculated according to the weight of the compound weighed and the total amount of water added.
# [3] = Stability experiment of salt of Formula A (high temperature, high humidity, illumination; HPLC purity and X-ray powder diffraction); format: physicochemical; conditions: for Purity (%): HPLC; for Stability (chemical purity and crystalline form): high temperature, illumination or high humidity for 10 days
# Experimental: Determination method: the test samples of Form A-I, Form B-I, Form C-I, and Form C-Ill of salt of Formula A were placed on the culture dishes respectively, which were uncovered and placed in sealed clean containers. The containers were placed under a temperature of 60° C. for 10 days, under an illumination of 4500 lx±500 lx for 10 days, and under a temperature of 25° C. and a relative humidity of 92.5%±5% for 10 days respectively. Then sampled on the 5th day and the 10th day respectively. Investigated for the purity (using HPLC analysis) and crystalline form (using X-ray powder diffraction analysis) of the samples, and compared the investigation results. The experimental results of the salts and the crystalline forms thereof were shown in Table 1, Table 2, Table 3, and Table 4.9
# [4] = Solubility test of salt of Formula A (acetate, Form A-I) and its free base in different solvents; conditions: thermodynamic from solid
# Text: as §1
# [5] = 0 day, crystalline form by X-ray powder diffraction
# [6] = High humidity (92.5% RH, 25° C.), 5 days
# [7] = High humidity (92.5% RH, 25° C.), 5 days, X-ray powder diffraction
# [8] = High humidity (92.5% RH, 25° C.), 10 days
# [9] = High humidity (92.5% RH, 25° C.), 10 days, X-ray powder diffraction
# [10] = High temperature (60° C.), 5 days
# [11] = High temperature (60° C.), 5 days, X-ray powder diffraction
# [12] = High temperature (60° C.), 10 days
# [13] = High temperature (60° C.), 10 days, X-ray powder diffraction
# [14] = Illumination (4500 Lx), 5 days, X-ray powder diffraction
# [15] = Illumination (4500 Lx), 10 days
# [16] = Illumination (4500 Lx), 10 days, X-ray powder diffraction
# [17] = High humidity (92.5% RH, 25° C.), 5 days, monomalate
# [18] = High humidity (92.5% RH, 25° C.), 10 days, monomalate
# [19] = High temperature (60° C.), 5 days, monomalate
# [20] = High temperature (60° C.), 10 days, monomalate
# [21] = Illumination (4500 Lx), 5 days, monomalate
# [22] = Illumination (4500 Lx), 10 days, monomalate
# [23] = High humidity (92.5% RH, 25° C.), 5 days, malate
# [24] = High humidity (92.5% RH, 25° C.), 10 days, malate
# [25] = High temperature (60° C.), 5 days, malate
# [26] = High temperature (60° C.), 10 days, malate
# [27] = Illumination (4500 Lx), 5 days, malate
# [28] = Illumination (4500 Lx), 10 days, malate
smiles,measurement,setting,value
"CC(=O)O.CS(=O)(=O)N1CCC(c2ccc(-c3cc4nccnc4c(NC[C@@H]4CNCCO4)n3)cc2)CC1 [Form A-I, (S)-7-(4-(1-(methylsulfonyl)piperidin-4-yl)phenyl)-N-(morpholin-2-ylmethyl)pyrido[3,4-b]pyrazin-5-amine monoacetate]",solubility at 4 h,[1]; 37 °C,26200 µg/mL
same,solubility at 4 h,[1],21800 µg/mL
same,solubility at 5 min,[2],14600 µg/mL
same,Chiral Purity (%),[3]; 0 day,99.63%
same,Purity (%),[3]; 0 day,99.39%
same,Form,[3]; [5],A-I
same,Chiral Purity (%),[3]; [6],99.69%
same,Purity (%),[3]; [6],99.35%
same,Form,[3]; [7],A-I
same,Chiral Purity (%),[3]; [8],99.71%
same,Purity (%),[3]; [8],99.53%
same,Form,[3]; [9],A-I
same,Chiral Purity (%),[3]; [10],99.66%
same,Purity (%),[3]; [10],99.31%
same,Form,[3]; [11],A-I
same,Chiral Purity (%),[3]; [12],99.71%
same,Purity (%),[3]; [12],99.37%
same,Form,[3]; [13],A-I
same,Chiral Purity (%),"[3]; Illumination (4500 Lx), 5 days",99.69%
same,Purity (%),"[3]; Illumination (4500 Lx), 5 days",99.30%
same,Form,[3]; [14],A-I
same,Chiral Purity (%),[3]; [15],99.71%
same,Purity (%),[3]; [15],98.99%
same,Form,[3]; [16],A-I
same,Stability (chemical purity and crystalline form),[3],stable
"CS(=O)(=O)N1CCC(c2ccc(-c3cc4nccnc4c(NC[C@@H]4CNCCO4)n3)cc2)CC1.Cc1ccc(S(=O)(=O)O)cc1 [Form B-I, (S)-7-(4-(1-(methylsulfonyl)piperidin-4-yl)phenyl)-N-(morpholin-2-ylmethyl)pyrido[3,4-b]pyrazin-5-amine mono p-Tosylate]",Rough solubility,[2],650 µg/mL
same,Chiral Purity (%),[3]; 0 day,99.71%
same,Purity (%),[3]; 0 day,99.49%
same,Form,[3]; [5],B-I
same,Chiral Purity (%),[3]; [6],99.76%
same,Purity (%),[3]; [6],99.47%
same,Form,[3]; [7],B-I
same,Chiral Purity (%),[3]; [8],99.71%
same,Purity (%),[3]; [8],99.63%
same,Form,[3]; [9],B-I
same,Chiral Purity (%),[3]; [10],99.70%
same,Purity (%),[3]; [10],99.48%
same,Form,[3]; [11],B-I
same,Chiral Purity (%),[3]; [12],99.76%
same,Purity (%),[3]; [12],99.51%
same,Form,[3]; [13],B-I
same,Chiral Purity (%),"[3]; Illumination (4500 Lx), 5 days",99.76%
same,Purity (%),"[3]; Illumination (4500 Lx), 5 days",99.19%
same,Form,[3]; [14],B-I
same,Chiral Purity (%),[3]; [15],99.72%
same,Purity (%),[3]; [15],99.05%
same,Form,[3]; [16],B-I
"CS(=O)(=O)N1CCC(c2ccc(-c3cc4nccnc4c(NC[C@@H]4CNCCO4)n3)cc2)CC1.O=C(O)CC(O)C(=O)O [Form C-I, (S)-7-(4-(1-(methylsulfonyl)piperidin-4-yl)phenyl)-N-(morpholin-2-ylmethyl)pyrido[3,4-b]pyrazin-5-amine monomalate]",solubility at 5 min,[2],480 µg/mL
same,Purity (%),"[3]; 0 day, monomalate",99.71%
same,Form,"[3]; 0 day, crystalline form by X-ray powder diffraction, monomalate",C-I
same,Chiral Purity (%),"[3]; 0 day, monomalate",99.52%
same,Purity (%),[3]; [17],99.72%
same,Form,"[3]; High humidity (92.5% RH, 25° C.), 5 days, X-ray powder diffraction, monomalate",C-I
same,Chiral Purity (%),[3]; [17],99.53%
same,Purity (%),[3]; [18],99.68%
same,Form,"[3]; High humidity (92.5% RH, 25° C.), 10 days, X-ray powder diffraction, monomalate",C-I
same,Chiral Purity (%),[3]; [18],99.53%
same,Purity (%),[3]; [19],99.61%
same,Form,"[3]; High temperature (60° C.), 5 days, X-ray powder diffraction, monomalate",C-I
same,Chiral Purity (%),[3]; [19],99.52%
same,Purity (%),[3]; [20],99.63%
same,Form,"[3]; High temperature (60° C.), 10 days, X-ray powder diffraction, monomalate",C-I
same,Chiral Purity (%),[3]; [20],99.54%
same,Purity (%),[3]; [21],99.67%
same,Form,"[3]; Illumination (4500 Lx), 5 days, X-ray powder diffraction, monomalate",C-I
same,Chiral Purity (%),[3]; [21],99.51%
same,Purity (%),[3]; [22],99.61%
same,Form,"[3]; Illumination (4500 Lx), 10 days, X-ray powder diffraction, monomalate",C-I
same,Chiral Purity (%),[3]; [22],99.50%
same,Stability (chemical purity and crystalline form),[3],stable
"CS(=O)(=O)N1CCC(c2ccc(-c3cc4nccnc4c(NC[C@@H]4CNCCO4)n3)cc2)CC1.O=C(O)CC(O)C(=O)O [Form C-III, (S)-7-(4-(1-(methylsulfonyl)piperidin-4-yl)phenyl)-N-(morpholin-2-ylmethyl)pyrido[3,4-b]pyrazin-5-amine malate]",Purity (%),"[3]; 0 day, malate",99.75%
same,Form,"[3]; 0 day, crystalline form by X-ray powder diffraction, malate",C-III
same,Chiral Purity (%),"[3]; 0 day, malate",99.39%
same,Purity (%),[3]; [23],99.67%
same,Form,"[3]; High humidity (92.5% RH, 25° C.), 5 days, X-ray powder diffraction, malate",C-III
same,Chiral Purity (%),[3]; [23],99.39%
same,Purity (%),[3]; [24],99.69%
same,Form,"[3]; High humidity (92.5% RH, 25° C.), 10 days, X-ray powder diffraction, malate",C-III
same,Chiral Purity (%),[3]; [24],99.38%
same,Purity (%),[3]; [25],99.57%
same,Form,"[3]; High temperature (60° C.), 5 days, X-ray powder diffraction, malate",C-III
same,Chiral Purity (%),[3]; [25],99.40%
same,Purity (%),[3]; [26],99.70%
same,Form,"[3]; High temperature (60° C.), 10 days, X-ray powder diffraction, malate",C-III
same,Chiral Purity (%),[3]; [26],99.39%
same,Purity (%),[3]; [27],99.59%
same,Form,"[3]; Illumination (4500 Lx), 5 days, X-ray powder diffraction, malate",C-III
same,Chiral Purity (%),[3]; [27],99.37%
same,Purity (%),[3]; [28],99.65%
same,Form,"[3]; Illumination (4500 Lx), 10 days, X-ray powder diffraction, malate",C-III
same,Chiral Purity (%),[3]; [28],99.40%
"CS(=O)(=O)N1CCC(c2ccc(-c3cc4nccnc4c(NC[C@@H]4CNCCO4)n3)cc2)CC1 [Free base of Formula A, (S)-7-(4-(1-(methylsulfonyl)piperidin-4-yl)phenyl)-N-(morpholin-2-ylmethyl) pyrido[3,4-b]pyrazin-5-amine]",solubility at 4 h,"[4]; acetone, organic solvent or mixture",2120 µg/mL
same,solubility at 4 h,"[4]; ethanol, organic solvent or mixture",640 µg/mL
same,solubility at 4 h,"[4]; methanol, organic solvent or mixture",1580 µg/mL
same,solubility at 4 h,"[4]; purified water, 37 °C, water",2.5 µg/mL
same,solubility at 4 h,"[4]; purified water, water",2.4 µg/mL
same,solubility at 4 h,"[4]; tetrahydrofuran, organic solvent or mixture",10700 µg/mL
